How the values were obtained:
hCA I = target: T1, hCA I (Homo sapiens, UniProt P00915); assay: Carbonic anhydrase I inhibition assay (esterase method, p-nitrophenyl acetate, 348 nm); type: biochemical; conditions: hCA I purified from human erythrocytes
T1 construct: hCA I and hCA II isoenzymes purified from human erythrocytes under in vitro conditions; from tissue; host or cells: human erythrocytes
Source text: (§1) The esterase method was used to investigate the effects of the molecule on hCA isoenzymes.[44] This method is based on the activity of hCA for the hydrolysis of p-nitrophenyl acetate as a substrate for the reaction mechanism of p-nitrophenol or p-nitrophenolate. […] Since p-nitrophenyl acetate has very little absorption at this wavelength, it will be used as a blank. The p-nitrophenyl acetate substrate solution used in the experiments will be prepared daily.[45],[46]
(§2) Then, the cuvette content containing enzymes, unlike the blank cuvette, was prepared according to Table 1 and placed in the spectrophotometer device. […] Then, molecules at different concentrations were added one by one, the absorbances at 0 and 3 min were measured again, and their differences were taken.[45],[46] […] The enzyme activity values obtained were converted to % activity, their graphs were drawn according to the different concentrations of the molecules, and the IC50 value, that is, the concentration of molecules that reduced the enzyme activity by half, was found. The values were interpreted.
(§3) For the inhibition study, five different inhibitor concentrations of molecules were used at a fixed substrate concentration, and the inhibitor concentration (IC50) values that reduced the enzyme’s activity by half were determined by drawing % activity–[I] graphs.

hCA II = target: T2, hCA II (Homo sapiens, UniProt P00918); assay: Carbonic anhydrase II inhibition assay (esterase method, p-nitrophenyl acetate, 348 nm); type: biochemical; conditions: hCA II purified from human erythrocytes
T2 construct: hCA I and hCA II isoenzymes purified from human erythrocytes under in vitro conditions; from tissue; host or cells: human erythrocytes
Source text: as §1, §2, §3

T1 sequence (P00915 whole entry): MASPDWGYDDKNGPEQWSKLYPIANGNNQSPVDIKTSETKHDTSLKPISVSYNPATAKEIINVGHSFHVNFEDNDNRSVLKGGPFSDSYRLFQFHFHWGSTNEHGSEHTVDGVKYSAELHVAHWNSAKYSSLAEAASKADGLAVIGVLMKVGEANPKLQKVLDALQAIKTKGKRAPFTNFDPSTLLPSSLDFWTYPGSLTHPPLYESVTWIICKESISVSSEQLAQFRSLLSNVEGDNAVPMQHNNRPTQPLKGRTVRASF

| SMILES | IC50 (hCA I) [µM] | IC50 (hCA II) [µM] |
| --- | --- | --- |
| CC(=NNc1nc(-c2ccc([N+](=O)[O-])cc2)cs1)c1ccc(S(C)(=O)=O)cc1 [2a, 2-(2-(1-(4-(Methylsulfonyl)phenyl)ethylidene)hydrazinyl)-4-(4-nitrophenyl)thiazole] | 39.4 | 70 |
| COc1ccc(-c2csc(NN=C(C)c3ccc(S(C)(=O)=O)cc3)n2)cc1 [2b, 2-(2-(1-(4-(Methylsulfonyl)phenyl)ethylidene)hydrazinyl)-4-(4-methoxyphenyl)thiazole] | 59.8 | 76.2 |
| CC(=NNc1nc(-c2ccc(C#N)cc2)cs1)c1ccc(S(C)(=O)=O)cc1 [2c, 2-(2-(1-(4-(Methylsulfonyl)phenyl)ethylidene)hydrazinyl)-4-(4-cyanophenyl)thiazole] | 63 | 39.2 |
| CC(=NNc1nc(-c2ccc(F)cc2)cs1)c1ccc(S(C)(=O)=O)cc1 [2d, 2-(2-(1-(4-(Methylsulfonyl)phenyl)ethylidene)hydrazinyl)-4-(4-fluorophenyl)thiazole] | 103 | 54.1 |
| CC(=NNc1nc(-c2ccc(-c3ccccc3)cc2)cs1)c1ccc(S(C)(=O)=O)cc1 [2e, 4-([1,1′-Biphenyl]-4-yl)-2-(2-(1-(4-(methylsulfonyl)phenyl)ethylidene)hydrazinyl)thiazole] | 77.9 | 40.5 |
| CC(=NNc1nc(-c2ccc(Br)cc2)cs1)c1ccc(S(C)(=O)=O)cc1 [2f, 2-(2-(1-(4-(Methylsulfonyl)phenyl)ethylidene)hydrazinyl)-4-(4-bromophenyl)thiazole] | 133 | 51.3 |
| CC(=NNc1nc(-c2ccc(C)cc2)cs1)c1ccc(S(C)(=O)=O)cc1 [2g, 2-(2-(1-(4-(Methylsulfonyl)phenyl)ethylidene)hydrazinyl)-4-(4-methylphenyl)thiazole] | 198 | 78.8 |
| CC(=NNc1nc(-c2ccc(Cl)c(Cl)c2)cs1)c1ccc(S(C)(=O)=O)cc1 [2h, 2-(2-(1-(4-(Methylsulfonyl)phenyl)ethylidene)hydrazinyl)-4-(3,4-dichlorophenyl)thiazole] | 60.8 | 38.5 |
| CC(=NNc1nc(-c2ccc(F)cc2F)cs1)c1ccc(S(C)(=O)=O)cc1 [2i, 2-(2-(1-(4-(Methylsulfonyl)phenyl)ethylidene)hydrazinyl)-4-(2,4-difluorophenyl)thiazole] | 52.9 | 86.6 |
| CC(=NNc1nc(-c2cccc([N+](=O)[O-])c2)cs1)c1ccc(S(C)(=O)=O)cc1 [2j, 2-(2-(1-(4-(Methylsulfonyl)phenyl)ethylidene)hydrazinyl)-4-(3-nitrophenyl)thiazole] | 80.6 | 64.8 |
| CC(=NNc1nc(-c2ccc(Cl)cc2)cs1)c1ccc(S(C)(=O)=O)cc1 [2k, 2-(2-(1-(4-(Methylsulfonyl)phenyl)ethylidene)hydrazinyl)-4-(4-chlorophenyl) thiazole] | 58.7 | 86.6 |
| CC(=NNc1nc(-c2ccc(Cl)cc2Cl)cs1)c1ccc(S(C)(=O)=O)cc1 [2l, 2-(2-(1-(4-(Methylsulfonyl)phenyl)ethylidene)hydrazinyl)-4-(2,4-dichlorophenyl)thiazole] | 67.9 | 71.5 |
| CC(=NNc1nc(-c2ccccc2)cs1)c1ccc(S(C)(=O)=O)cc1 [2m, 2-(2-(1-(4-(Methylsulfonyl)phenyl)ethylidene)hydrazinyl)-4-phenylthiazole] | 44.4 | 53.3 |

— article PMC11983343, “Synthesis of Thiazole-methylsulfonyl Derivatives, X-ray Study, and Investigation of Their Carbonic Anhydrase Activities: In Vitro and In Silico Potentials” (ACS Omega, 2025)
